How the values were obtained:
Stromelysin-1 [1] = target: T1, Stromelysin-1 (Homo sapiens, UniProt P08254); assay: (§1) Inhibition of human recombinant matrix metalloprotease-3 (Stromelysin) at 10 uM
Target sequence in this assay (P08254 100-477 limits assumed): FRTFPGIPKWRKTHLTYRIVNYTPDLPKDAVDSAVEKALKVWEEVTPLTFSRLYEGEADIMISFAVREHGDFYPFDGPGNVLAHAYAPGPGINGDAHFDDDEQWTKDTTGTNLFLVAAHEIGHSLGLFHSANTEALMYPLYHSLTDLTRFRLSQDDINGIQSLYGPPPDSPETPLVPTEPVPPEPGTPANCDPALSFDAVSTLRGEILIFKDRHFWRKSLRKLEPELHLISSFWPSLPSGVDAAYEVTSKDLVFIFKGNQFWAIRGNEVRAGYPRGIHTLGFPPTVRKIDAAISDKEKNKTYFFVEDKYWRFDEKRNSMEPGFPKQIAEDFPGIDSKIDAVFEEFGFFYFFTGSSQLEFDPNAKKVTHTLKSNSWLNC

[2] = target: Matrix metalloproteinase-9 (Homo sapiens) (UniProt P14780); assay: Inhibition of human recombinant 92 kDa gelatinase MMP-9 at 10 uM
[3] = target: T2, Interstitial collagenase (Homo sapiens) (UniProt P03956); assay: Inhibition of human recombinant interstitial collagenase MMP-1 at 10 uM
T2 sequence (whole entry): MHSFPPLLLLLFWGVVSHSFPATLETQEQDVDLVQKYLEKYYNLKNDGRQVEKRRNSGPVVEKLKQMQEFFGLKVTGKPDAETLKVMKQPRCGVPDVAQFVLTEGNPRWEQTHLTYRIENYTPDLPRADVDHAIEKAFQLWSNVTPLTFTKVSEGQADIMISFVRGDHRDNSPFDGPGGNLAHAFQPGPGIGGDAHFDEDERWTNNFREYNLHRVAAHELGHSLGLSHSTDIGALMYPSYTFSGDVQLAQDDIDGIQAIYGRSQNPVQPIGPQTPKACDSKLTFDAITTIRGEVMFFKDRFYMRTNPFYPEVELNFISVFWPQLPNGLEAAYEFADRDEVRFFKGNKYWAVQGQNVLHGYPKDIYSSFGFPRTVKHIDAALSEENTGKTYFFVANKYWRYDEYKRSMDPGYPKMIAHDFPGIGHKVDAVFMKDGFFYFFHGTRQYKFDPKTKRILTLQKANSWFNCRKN

Stromelysin-1 [4] = target: T1, Stromelysin-1; assay: Inhibition of human recombinant matrix metalloprotease-3 (Stromelysin) at 100 uM
Target sequence in this assay (P08254 whole entry): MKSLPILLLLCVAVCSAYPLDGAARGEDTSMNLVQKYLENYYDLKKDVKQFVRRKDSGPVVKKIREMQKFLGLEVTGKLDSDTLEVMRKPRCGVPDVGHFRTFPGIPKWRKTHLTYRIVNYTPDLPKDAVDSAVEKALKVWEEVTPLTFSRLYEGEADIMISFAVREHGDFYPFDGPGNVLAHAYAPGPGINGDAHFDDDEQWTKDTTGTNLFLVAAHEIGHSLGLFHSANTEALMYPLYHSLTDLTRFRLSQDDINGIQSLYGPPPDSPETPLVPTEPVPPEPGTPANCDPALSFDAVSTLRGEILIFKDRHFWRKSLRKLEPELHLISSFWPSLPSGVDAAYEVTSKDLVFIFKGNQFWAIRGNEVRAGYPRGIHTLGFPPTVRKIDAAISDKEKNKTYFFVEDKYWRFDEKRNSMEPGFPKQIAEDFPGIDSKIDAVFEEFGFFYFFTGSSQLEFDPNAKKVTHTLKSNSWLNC

Stromelysin-1 [5] = target: T1, Stromelysin-1; assay: as §1; remark: listed apart in the source
Target sequence in this assay (P08254 whole entry): as above

Matrix metalloproteinase-9 (Homo sapiens), sequence (P14780 whole entry): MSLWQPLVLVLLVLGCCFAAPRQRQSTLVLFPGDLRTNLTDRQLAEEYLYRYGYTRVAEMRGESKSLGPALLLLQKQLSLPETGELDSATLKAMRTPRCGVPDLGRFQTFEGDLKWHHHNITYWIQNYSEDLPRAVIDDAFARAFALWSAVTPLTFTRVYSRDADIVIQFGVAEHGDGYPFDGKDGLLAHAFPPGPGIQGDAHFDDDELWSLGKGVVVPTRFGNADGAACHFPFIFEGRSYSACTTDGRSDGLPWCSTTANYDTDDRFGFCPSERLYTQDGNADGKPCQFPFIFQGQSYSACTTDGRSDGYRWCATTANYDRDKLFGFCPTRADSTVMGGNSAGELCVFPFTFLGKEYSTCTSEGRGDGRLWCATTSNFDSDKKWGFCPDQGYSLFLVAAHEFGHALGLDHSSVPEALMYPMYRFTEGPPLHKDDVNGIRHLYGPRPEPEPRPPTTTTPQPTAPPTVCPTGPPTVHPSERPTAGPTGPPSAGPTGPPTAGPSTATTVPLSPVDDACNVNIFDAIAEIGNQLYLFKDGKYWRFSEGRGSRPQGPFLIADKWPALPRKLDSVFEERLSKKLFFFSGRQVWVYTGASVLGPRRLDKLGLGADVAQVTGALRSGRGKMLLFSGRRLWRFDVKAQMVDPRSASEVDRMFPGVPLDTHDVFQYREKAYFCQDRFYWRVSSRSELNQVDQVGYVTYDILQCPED

inhibition (Stromelysin-1 [1]) [%] | inhibition [2] [%] | inhibition [3] [%] | IC50 (Stromelysin-1 [4]) [nM] | IC50 (Stromelysin-1 [5]) [nM] | Compound
100 | 100 | 100 | 28 | – | CNC(=O)[C@H](Cc1c[nH]c2ccccc12)NC(=O)[C@@H](CC(=O)NO)CC(C)C [ILOMASTAT]
35 | 0 | 16 | – | < 1000 | COC1=C[C@]23C[C@H](C[C@H](c4ccc5c(c4)OCO5)[C@H]2C)OC3=CC1=O [FUTOENONE]
38 | 0 | 0 | – | – | COC1=C[C@]23C[C@H](C[C@H](c4cc5c(cc4Br)OCO5)[C@H]2C)OC3=C(Br)C1=O
36 | 0 | 0 | – | – | C=CCc1c(O)c(OC)cc2c1O[C@@H](C[C@H](c1ccc3c(c1)OCO3)C(C)O)C2 (stereo not given in full)
42 | 0 | 0 | – | – | COC1=C[C@]23C[C@H](C[C@H](c4ccc5c(c4)OCO5)[C@H]2C)OC3=CC1=S
98 | 44 | 75 | – | 600 | COc1cc2c(cc1S)O[C@@H](C[C@H](c1ccc3c(c1)OCO3)C(C)O)C2 (stereo not given in full)
58 | 8 | 23 | – | – | COc1cc2c(cc1SC(C)=O)O[C@@H](C[C@H](c1ccc3c(c1)OCO3)C(C)OC(C)=O)C2 (stereo not given in full)
34 | 0 | 0 | – | – | COc1cc2c(cc1O)O[C@@H](C[C@H](c1ccc3c(c1)OCO3)C(C)O)C2 (stereo not given in full)
38 | 22 | 0 | – | – | COC1=C[C@]23C[C@H](C[C@H](c4ccc5c(c4)OCO5)[C@H]2C)OC3=C(Br)C1=O
